Measured values: patent publication US20260226101A1, “PEPTIDE WITH ANTI-INFLAMMATORY AND ANTI-MICROBIAL ACTIVITY” (priority 2023, published 2026)
Ends that are not written are not given here.

How the values were obtained:
[1] = tested on: LPS-stimulated peritoneal macrophages; test: Cytokine ELISA in LPS-stimulated peritoneal macrophages; type: cell-based, BALB/c mice
Protocol: BALB/c mice (6-8 wk old) of either sex was injected IP with 1 ml of 4% sterile thioglycollate broth in PBS. After 4 d, mice were sacrificed, and peritoneal macrophages were harvested as described below [Meurer S K, 2016] and this model is well known as “Thioglycollate-induced peritonitis model”. […] After 4 days, mice were then euthanized, and the peritoneal macrophages were harvested by lavaging the peritoneal cavity with 5-6 mL of harvest medium (EDTA 5 mM+PBS). Isolated peritoneal exudate cells were washed twice with RPMI and centrifuged at 1000 rpm/400×g for 8-10 min at 4° C. […] The plates were then washed with warm PBS to remove non-adherent cells. […] After 24 h, culture supernatants were collected for estimation of cytokines by ELIZA and RTqPCR, whereas cells were harvested for western blotting. The procedure of ELISA, RTqPCR and other conditions are same as in the section. [Min Jee Kim et al., 2014].

[2] = tested on: E. coli ATCC 8739-induced septic peritonitis; test: E. coli-induced septic peritonitis model; type: in vivo, BALB/c mice; conditions: administration at 1, 24 and 72 h post injection of E. coli; last time point of 8 h
[3] = tested on: Klebsiella pneumoniae ATCC 700603; test: Time-kill assay; type: cell-based; conditions: K. pneumoniae
Protocol: The survival of bacteria, time kill efficacy assay of IS 111 was further evaluated for activity against bacterial strain mentioned above according to CLSI reference method, with slightly modification. MICs were determined by broth microdilution assay as described above. […] Test tubes of MHB without test compound IS 111 were used as vehicle controls. Overnight cultures of the bacterial strains at cell densities of approximately 1×10^8 CFU/ml were used to inoculate both test and control tubes. The standard tube dilution method was opted to evaluate the time-kill efficacy of bacteria. Bacterial inoculum (1 mL) was diluted by adding 9 mL sterile saline solution and serially diluted up to 10^−3. […] 100 μL incubated suspension was transferred on the agar plates and spread through the spreader. Colony counts were performed after 24 h incubation at 37° C. Plates with 10-300 colonies were used for these counts, and the kill rate was determined by plotting log 10 viable counts (CFU/ml) against time. Bactericidal activity was defined as a ≥3 log 10 decreases in CFU/ml of the initial microbial population, while bacteriostatic activity was defined was defined as a <3 log 10 decrease in CFU/ml. The assay was performed in triplicate [Olufunmiso O Olajuyigbe et al., 2015; Sutthiwan Thammawat et al., 2017]
The time-kill kinetics antibacterial study of the Peptide IS 111 was carried out to assess the killing rate of the compound within a given contact time. The survival of bacteria, time kill efficacy assay of IS 111 was further evaluated for activity against Escherichia coli ATCC 8739 and Staphylococcus aureus ATCC 6538, Pseudomonas aeruginosa ATCC 9027 and Klebsiella pneumoniae ATCC 700603 according to CLSI reference method, with slightly modification. MICs were determined by broth microdilution assay as described above. […] 10. Test tubes of MHB without test compound Peptide IS 111 were used as vehicle controls. Overnight cultures of the bacterial strains at cell densities of approximately 1×10^6 CFU/ml were used to inoculate both test and control tubes.
After each interval, ten-fold dilutions were prepared with normal saline, and 100 μL incubated suspension was transferred on the agar plates and spread through the spreader. Colony counts were performed after 24 h incubation at 37° C. Plates with 10-300 colonies were used for these counts, and the kill rate was determined by plotting log 10 viable counts (CFU/ml) against time. Bactericidal activity was defined as a ≥3 log 10 decrease in CFU/ml of the initial microbial population, while bacteriostatic activity was defined as a <3 log 10 decrease in CFU/ml. The assay was performed in triplicate. The proportion of cells surviving at 60 min was calculated, as was the mean and standard deviation. Proportions of surviving cells were compared using Student's 2-tailed t-test, assuming unequal variance and differences were considered significant where p≤0.05.

“FAKKFAK [IS 111, Phe-Ala-Lys-Lys-Phe-Ala-Lys]” was tested. Which “Concentration of maximum inhibition for all cytokines” value ([1]; IL-1β, IL-6, IL-12p70, TNF-α, text prints RAW 264.7 cells) did it give?
The value was 100 µM.

What about the IL-10 levels ([1]; summary table) of the same substance?
The IL-10 levels was “TNF-α and ↑ IL-10 levels”.

And the Survival [2]?
The Survival was 80%.

And the Viable count ([3]; 0.5 × MIC, 0 h)?
Its Viable count is 4.8 ± 0.50 1 × 10^5 CFU/ml.

What about the Viable count ([3]; 0.5 × MIC, 1 h) of the same substance?
Its Viable count is 4.2 ± 0.35 1 × 10^5 CFU/ml.

What about the Viable count ([3]; 0.5 × MIC, 2 h) of the same substance?
The Viable count was 3.4 ± 0.55 1 × 10^5 CFU/ml.

And the Viable count ([3]; 0.5 × MIC, 3 h)?
The Viable count was 2.9 ± 0.45 1 × 10^5 CFU/ml.

And the Viable count ([3]; 0.5 × MIC, 4 h)?
The Viable count was 2.1 ± 0.48 1 × 10^5 CFU/ml.

What about the Viable count ([3]; 0.5 × MIC, 5 h) of the same substance?
Its Viable count is 1.7 ± 0.30 1 × 10^5 CFU/ml.

What about the Viable count ([3]; 0.5 × MIC, 12 h) of the same substance?
Its Viable count is 1.5 ± 0.33 1 × 10^5 CFU/ml.

What about the Reduction in viability ([3]; 0.5×MIC (3.13 μg/ml), 24 h) of the same substance?
The Reduction in viability was under 1 log 10 CFU/ml.

What about the “Type of activity (bacteriostatic or bactericidal)” value ([3]; 0.5×MIC, 24 h) of the same substance?
The value was “bacteriostatic”.

What about the Viable count ([3]; 0.5×MIC, 24 h) of the same substance?
Its Viable count is 0.8 ± 0.13 1 × 10^5 CFU/ml.

What about the Viable count ([3]; 1 × MIC, 0 h) of the same substance?
Its Viable count is 5.1 ± 0.23 1 × 10^5 CFU/ml.

What about the Viable count ([3]; 1 × MIC, 1 h) of the same substance?
Its Viable count is 4.0 ± 0.18 1 × 10^5 CFU/ml.

And the Viable count ([3]; 1 × MIC, 2 h)?
The Viable count was 1.9 ± 0.40 1 × 10^5 CFU/ml.

And the Viable count ([3]; 1 × MIC, 3 h)?
The Viable count was 1.2 ± 0.15 1 × 10^5 CFU/ml.

And the Viable count ([3]; 1 × MIC, 4 h)?
The Viable count was 0.6 ± 0.03 1 × 10^5 CFU/ml.

What about the Viable count ([3]; 1 × MIC, 5 h) of the same substance?
Its Viable count is 0.5 ± 0.05 1 × 10^5 CFU/ml.

What about the Viable count ([3]; 1 × MIC, 12 h) of the same substance?
The Viable count was 0.2 ± 0.15 1 × 10^5 CFU/ml.

And the Viable count ([3]; 1 × MIC, 24 h)?
Its Viable count is 0 1 × 10^5 CFU/ml.

What about the “Time to bacteriostatic activity” value ([3]; 1×MIC (6.25 μg/ml)) of the same substance?
Its value is at most 24 h.

What about the Viable count ([3]; 5 × MIC, 0 h) of the same substance?
The Viable count was 5.6 ± 0.18 1 × 10^5 CFU/ml.

What about the Viable count ([3]; 5 × MIC, 1 h) of the same substance?
The Viable count was 1.8 ± 0.13 1 × 10^5 CFU/ml.

What about the Viable count ([3]; 5 × MIC, 2 h) of the same substance?
The Viable count was 0.9 ± 0.08 1 × 10^5 CFU/ml.

What about the Viable count ([3]; 5 × MIC, 3 h) of the same substance?
Its Viable count is 0.6 ± 0.08 1 × 10^5 CFU/ml.

And the Viable count ([3]; 5 × MIC, 4 h)?
Its Viable count is 0.4 ± 0.05 1 × 10^5 CFU/ml.

And the Viable count ([3]; 5 × MIC, 5 h)?
Its Viable count is 0 1 × 10^5 CFU/ml.

What about the Viable count ([3]; 5 × MIC, 12 h) of the same substance?
The Viable count was 0 1 × 10^5 CFU/ml.

What about the Viable count ([3]; 5 × MIC, 24 h) of the same substance?
Its Viable count is 0 1 × 10^5 CFU/ml.

And the “Time to bacteriostatic activity” value ([3]; 5×MIC (31.25 μg/ml))?
The value was at most 5 h.
